US20200345055A1, “ACTIVATION OF CONDITIONALLY-EXPRESSED OLIGOSACCHARIDE PATHWAYS DURING FERMENTATION OF PROBIOTIC STRAINS” (EVOLVE BIOSYSTEMS, INC., priority 2018, published 2020)
“Also recorded” adds a separate entry of the source.

How the values were obtained:
[1] = system: Blon_2343 and Blon_0881 in B. infantis; test: qRT-PCR of Blon_2343 and Blon_0881 in B. infantis grown on NAG/glucose, normalized to Blon_0393; assay type: cell-based; settings: all tested concentrations of NAG (5-20 g/L with glucose to 20 g/L), harvested after 6 or 12 hours; FIG. 2
Method: FIG. 2. Average relative fold change in gene expression of the genes Blon_2343 and Blon_0881 in B. infantis coding a carbohydrate ABC transporter inner membrane protein and a glucosamine-6-phosphate isomerase or NagB, respectively. Different concentrations of N-acetylglucosamine (NAG) were added to the culture media used to ferment B. infantis. The cells were harvested after 6 hours (A) or 12 hours of growth (B) and RNA was isolated for quantitative reverse transcription PCR (qRT-PCR). Activation was assessed using specific primers for Blon_2343 and Blon_0881 and normalized to a housekeeping gene (Blon_0393). The dashed horizontal line represents no change in expression. […] Cells grown in glucose alone (0 g/L NAG) show no activation.
In some embodiments, gene activation relates to Blon_0881 and Blon_2343 and their expression is greater than 1; that is, when the delta delta cycle threshold (2^−ΔΔ^Ct) is greater than 1, 2^−ΔΔ^Ct is calculated using Blon_0393, or another constitutively expressed gene as a reference. The result (activation) is the fold change (2^−ΔΔ^Ct>1) of gene expression, determined based on the 2^−ΔΔ^Ct method. […]
A series of fermentations were conducted where B. infantis was grown on various concentrations of NAG and glucose shown in Table 5. The cells were grown for a determined period of time (i.e 6 and 12 hours) and spun down. […]

[2] = system: N-acetylglucosamine-6-phosphate deacetylase gene in L. plantarum; test: qRT-PCR of N-acetylglucosamine-6-phosphate deacetylase in Lactobacillus plantarum, normalized to rpoB; assay type: cell-based; settings: for activation of L. plantarum (fold change of N-acetylglucosamine-6-phosphate deacetylase expression): FIG. 3
Source text: FIG. 3. Average relative fold change in the expression of the genes coding for N-acetylglucosamine-6-phosphate deacetylase under different concentrations of N-acetylglucosamine (NAG) added to the culture media for Lactobacillus plantarum. Culture media with different concentrations of NAG (3, 12.5 and 20 g/L) were used to ferment Lactobacillus plantarum. The cells were harvested and RNA was isolated for qRT-PCR. Using specific primers for N-acetylglucosamine-6-phosphate deacetylase, activation was assessed using normalization to a housekeeping gene (rpoB) found in L. plantarum. […] Three different fermentation media compositions were made that contained: 1) 100% NAG (25 g/L); 2) 50% NAG (12.5 g/L) with 50% Lactose (12.5 g/L); and 3) 12.5% NAG (3 g/L) with 87.5% lactose (22 g/L). This represented about 2% of the total media composition (wt/vol). The media also contained sources of nitrogen, minerals, reducing agents and was autoclaved prior to addition of L. plantarum inoculum. The fermentation was carried out under anaerobic conditions for 24 hours until the cells reached the stationary phase. The cells were harvested and RNA extracted (Sambrook, Joseph. & Russell, David W. & Cold Spring Harbor Laboratory. (2012). Molecular cloning: a laboratory manual. Cold Spring Harbor, N.Y: Cold Spring Harbor Laboratory). Specific primers for Lactobacillus were used for the following gene N-acetylglucosamine-6-phosphate deacetylase (activation gene) using normalization to a housekeeping gene (rpoB) found in L. plantarum.

[3] = system: B. infantis EVC001; test: Activation of B. infantis EVC001 judged from Blon_0881 and Blon_2343 expression against glucose control; assay type: cell-based, Bifidobacterium longum subsp. infantis EVC001; settings: 10 g/L activator + 10 g/L glucose, 16 hours
Method: (§1) In some embodiments, gene activation relates to Blon_0881 and Blon_2343 and their expression is greater than 1; that is, when the delta delta cycle threshold (2^−ΔΔ^Ct) is greater than 1, 2^−ΔΔ^Ct is calculated using Blon_0393, or another constitutively expressed gene as a reference. The result (activation) is the fold change (2^−ΔΔ^Ct>1) of gene expression, determined based on the 2^−ΔΔ^Ct method. (Livak K and Schmittgen T. (2001). Analysis of relative gene expression data using qRT-PCR and the 2^−ΔΔ^Ct Method. Methods: 25: 402-8). In other embodiments, other genes from Table 1 are used in addition to Blon_0881 and Blon_2343.
(§2) B. infantis EVC001 (Bifidobacterium longum subsp. infantis EVC001 deposited under ATCC Accession No. PTA-125180) was grown under 3 different experimental conditions for 16 hours. The carbon source was added to the initial culture media in the following amounts: 1) 20 g/L glucose; 2) 10 g/L N-acetyl-lactosamine and 10 g/L glucose; and 3) 10 g/L NAG and 10 g/L glucose. The cells were harvested and RNA was extracted to look specifically at gene expression of Blon_0881 and Blon_2343 by qRT-PCR relative to Blon_0393 and expressed as 2^−ΔΔ^Ct. Activation is determined by comparing against the control (glucose). A result greater than 1 is considered activated N-acetyl-lactosamine is an activator of B. infantis EVC001.

[4] = system: Blon_0881 (glucosamine-6-phosphate isomerase); test: qRT-PCR gene expression in B. infantis EVC001, relative to Blon_0393, 2^-ΔΔCt; assay type: cell-based, Bifidobacterium longum subsp. infantis EVC001; settings: 10 g/L activator + 10 g/L glucose, 16 hours; control 20 g/L glucose = 1
Method: as §1, §2

[5] = system: Blon_2343 (carbohydrate ABC transporter inner membrane protein); test: as above; assay type: cell-based, Bifidobacterium longum subsp. infantis EVC001; settings: 10 g/L activator + 10 g/L glucose, 16 hours; control 20 g/L glucose = 1
Method: as §1, §2

[6] = system: fucosidase activity in B. infantis; test: Fucosidase activity of dried B. infantis final product (colorimetric nitrophenol release, absorbance at 450 nm); assay type: cell-based, Bifidobacterium infantis
Method: FIG. 1. A comparison of fucosidase activity between a final product of B. infantis grown on N-acetylglucosamine (NAG) and a final product of B. infantis grown on glucose/lactose. B. infantis grown on 2.5% w/v NAG is compared to B. infantis grown on glucose/lactose. The absorbance due to the colorometric change resulting from fucosidase activity in the supernatant is measured using a spectrophotometer at 450 nm. […] A fermentation media was made that contained NAG as 100% of the carbon source. This represented 2% of the total media composition (wt/vol). The media also contained sources of nitrogen, minerals, reducing agents and was autoclaved prior to addition of a B. infantis inoculum. The fermentation was carried out under anaerobic conditions for up to 72 hours, until the fermentation reached the stationary phase. The cells were separated from the spent media and concentrated. A cryoprotectant was mixed with the cells to stabilize before freeze-drying. Once dried, the formulation was analyzed for fucosidase activity compared to a dried formulation that had been grown on glucose/lactose. […] The colorimetric difference was confirmed using a spectrophotometer (FIG. 1).

CC(=O)N[C@H]1C(O)O[C@H](CO)[C@@H](O)[C@@H]1O (stereo partly shown) [NAG, N-acetylglucosamine]
relative fold change in gene expression of Blon_2343 and Blon_0881 (2^ΔΔCt), activation [1]: > 1
activation of L. plantarum (fold change of N-acetylglucosamine-6-phosphate deacetylase expression) ([2]; 3 g/L NAG (12.5%) with 22 g/L lactose, 24 hours): did not
activation of L. plantarum (fold change of N-acetylglucosamine-6-phosphate deacetylase expression) ([2]; 12.5 g/L NAG (50%) with 12.5 g/L lactose, 24 hours): activated; also recorded: activation
activation of L. plantarum (fold change of N-acetylglucosamine-6-phosphate deacetylase expression) ([2]; 20 g/L NAG in culture media): activated
activation of L. plantarum (N-acetylglucosamine-6-phosphate deacetylase expression) ([2]; 100% NAG (25 g/L) as carbon source, 24 hours): activation
Interpretation (activation; result greater than 1 is considered activated) [3]: Activated
Mean 2^-ΔΔCt BLON_0881 [4]: 3.41
Mean 2^-ΔΔCt BLON_2343 [5]: 2.10
fucosidase activity (absorbance at 450 nm) ([6]; B. infantis final product grown on 2.5% w/v NAG, compared to cells grown on glucose/lactose, FIG. 1): had fucosidase activity
release of nitrophenol from aryl-substituted glycoside via fucosidases ([6]; dried B. infantis grown on NAG as 100% of carbon source, 2% wt/vol of media, up to 72 hours, compared to glucose/lactose): release nitrophenol

CC(=O)N[C@H]1C(O)O[C@H](CO)[C@@H](O[C@@H]2O[C@H](CO)[C@H](O)[C@H](O)[C@H]2O)[C@@H]1O (stereo partly shown) [N-acetyl-lactosamine]
Interpretation (activation; result greater than 1 is considered activated) [3]: activator; also recorded: Activated
Mean 2^-ΔΔCt BLON_0881 [4]: 10.50
Mean 2^-ΔΔCt BLON_2343 [5]: 6.94
